Source: patent publication US20210221785A1, “AMINO-PYRIMIDONYL DERIVATIVES, A PROCESS FOR THEIR PREPARATION AND PHARMACEUTICAL COMPOSITIONS CONTAINING THEM” (LES LABORATOIRES SERVIER, priority 2018, published 2021)

Assays:
[1] = molecular target: T1, His-His-USP7 (aa208-560, |C315A|) (Homo sapiens, UniProt Q93009, C315A); test: Evaluation of the inhibition of USP7 by the Fluorescence Intensity (FLINT) readings; format: biochemical; settings: 0.25 nM His-His-USP7, compound incubated 60 minutes at 30° C., 500 nM Ubiquitin-Rhodamine-110 substrate; 50% reduction in kinetic rate
T1 construct: His-His-USP7 (aa208-560, |C315A|); His-His (N)
Summary of the method: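 IC50 reflects 50% reduction in kinetic rate of rhodamine-110 release (Ex485/Em535, reads every 3 min over 21 min), normalised to DMSO and no-enzyme controls, from an 11-point 4-parameter fit. Substrate is 500 nM Ub-Rh110, added after 60 min, 30 °C preincubation of compound with 0.25 nM USP7 aa208–560 C315A. Buffer is Bicine pH 8.0 with 10% DMSO.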

[2] = system: Z138 mantle cell lymphoma tumour cell lines; test: In vitro cytotoxicity, MTT assay; format: cell-based; settings: Z138 cells exposed to the test compounds for 96 hours, cell viability vs DMSO treated cells
Protocol: The cytotoxicity studies were evaluated by MTT [3-(4,5-dimethylthiazol-2-yl)-2,5-diphenyltetrazolium bromide] assay and carried out on Z138 mantle cell lymphoma tumour cell lines. The cells are distributed onto microplates and exposed to the test compounds for 96 hours. MTT is then added for 4 hours and converted by NAD(P)H-dependent cellular oxidoreductase enzymes in formazan, which has a purple color. The viable cell number is proportional to the production of formuan salts and cell viability can be quantified by the absorbance of the solution at 540 nm with a speetrophotometer (Carmichael et al., Cancer Res. 1987, 47, 936-942).

T1 sequence (Q93009 208-560 C315A): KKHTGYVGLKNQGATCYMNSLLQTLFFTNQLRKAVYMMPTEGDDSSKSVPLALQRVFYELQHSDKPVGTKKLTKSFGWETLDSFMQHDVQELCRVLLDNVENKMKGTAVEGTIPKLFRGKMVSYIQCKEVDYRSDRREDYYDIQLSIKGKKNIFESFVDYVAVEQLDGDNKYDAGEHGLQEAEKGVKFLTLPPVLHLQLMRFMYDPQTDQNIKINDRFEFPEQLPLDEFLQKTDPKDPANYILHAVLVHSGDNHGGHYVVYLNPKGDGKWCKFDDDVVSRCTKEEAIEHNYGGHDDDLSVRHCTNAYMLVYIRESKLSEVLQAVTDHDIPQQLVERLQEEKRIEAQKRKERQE

| SMILES | IC50 [1] [nM] | IC50 ([2]; Homo sapiens, Z-138, 96 h) [µM] | IC50 [2] [µM] |
| --- | --- | --- | --- |
| Nc1c(Oc2ccccc2)ncn(CC2(O)CCN(C(=O)[C@@H]3CCC(F)(F)C[C@H]3n3cccc3)CC2)c1=O [Example 83, 5-amino-3-({1-[(1R,2R)-4,4-difluoro-2-(1H-pyrrol-1-yl)cyclohexane-1-carbonyl]-4-hydroxypiperidin-4-yl}methyl)-6-phenoxypyrimidin-4(3H)-one] | 220 | 0.327 | – |
| Nc1c(Oc2ccc(F)cc2)ncn(C[C@@]2(O)CCN(C(=O)[C@@H]3CCC(F)(F)C[C@H]3c3ccccc3)CC2(F)F)c1=O [Example 78, 5-amino-3-({(4S)-1-[(1R,2R)-4,4-difluoro-2-phenylcyclohexane-1-carbonyl]-3,3-difluoro-4-hydroxypiperidin-4-yl}methyl)-6-(4-fluorophenoxy)pyrimidin-4(3H)-one] | 57.5 | 0.115 | – |
| Nc1c(Oc2ccc(F)cc2)ncn(CC2(O)CCN(C(=O)[C@@H]3CC[C@@](F)(C#Cc4cncnc4)C[C@H]3c3ccccc3)CC2)c1=O [Example 140, 5-amino-3-({1-[(1R,2R,4S)-4-fluoro-2-phenyl-4-[2-(pyrimidin-5-yl)ethynyl]cyclohexanecarbonyl]-4-hydroxypiperidin-4-yl}methyl)-6-(4-fluorophenoxy)-3,4-dihydropyrimidin-1-one] | 69.1 | 0.0498 | – |
| Nc1c(Oc2ccc(F)cc2)ncn(CC2(O)CCN(C(=O)[C@@H]3CC[C@](F)(C#Cc4ncccn4)C[C@H]3c3ccccc3)CC2)c1=O [Example 141, 5-amino-3-[(1-{[(1R,2R,4R)-4-fluoro-2-phenyl-4-[2-(pyrimidin-2-yl)ethynyl]cyclohexyl]carbonyl}-4-hydroxypiperidin-4-yl)methyl]-6-(4-fluorophenoxy)pyrimidin-4-one] | 41 | 0.0117 | – |
| CO[C@]1(C#Cc2nccn2C)CC[C@@H](C(=O)N2CCC(O)(Cn3cnc(Oc4ccc(F)cc4)c(N)c3=O)CC2)[C@H](c2ccccc2)C1 [Example 159, 5-amino-6-(4-fluorophenoxy)-3-[(4-hydroxy-1-{[(1R,2R,4R)-4-methoxy-4-[2-(1-methylimidazol-2-yl)ethynyl]-2-phenytcyclohexyl]carbonyl}piperidin-4-yl)methyl]pyrimidin-4-one] | 28.2 | 0.0168 | – |
| Nc1cccc(C#C[C@@]2(F)CC[C@@H](C(=O)N3CCC(O)(Cn4cnc(Oc5ccc(F)cc5)c(N)c4=O)CC3)[C@H](c3ccccc3)C2)n1 [Example 161, 5-amino-3-[(1-{[(1R,2R,4R)-4-[2-(6-aminopyridin-2-yl)ethynyl]-4-fluoro-2-phenylcyclohexyl]carbonyl}-4-hydroxypiperidin-4-yl)methyl]-6-(4-fluurophenoxy)pyrimidin-4-one] | 29.4 | – | 0.0126 |
| CN(C)Cc1ccc(Oc2ncn(CC3(O)CCN(C(=O)[C@@H]4CCC(F)(F)C[C@H]4c4ccccc4)CC3)c(=O)c2N)cc1 [Example 108, 5-amino-3-({1-[(1R,2R)-4,4-difluoro-2-phenylcyclohexane-1-carbonyl]-4-hydroxypiperidin-4-yl}methyl)-6-{4-[(dimethylamino)methyl]phenoxy}pyrimidin-4(3H)-one] | 63.9 | 0.654 | – |
| CO[C@]1(C#Cc2ncc(C)cn2)CC[C@@H](C(=O)N2CC[C@](O)(Cn3cnc(Oc4ccc(F)cc4)c(N)c3=O)C(F)(F)C2)[C@H](c2ccccc2)C1 [Example 174, 5-amino-3-{[(4S)-3,3-difluoro-4-hydroxy-1-[(1R,2R,4R)-4-methoxy-4-[2-(5-methylpyrimidin-2-yl)ethynyl]-2-phenylcyclohexanecarbonyl]piperidin-4-yl]methyl}-6-(4-fluorophenoxy)-3,4-dihydropyrimidin-4-one] | 67.7 | 0.0174 | – |
| C#C[C@@]1(F)CC[C@@H](C(=O)N2CCC(O)(Cn3cnc(Oc4ccc(F)cc4)c(N)c3=O)CC2)[C@H](c2ccccc2)C1 [Example 123, 5-amino-3-({1-[(1R,2R,4R)-4-ethynyl-4-fluoro-2-phenylcyclohexanecarbonyl]-4-hydroxypiperidin-4-yl}methyl)-6-(4-fluorophenoxy)-3,4-dihydropyrimidin-4-one] | 35.4 | 0.0466 | – |
| Nc1c(Oc2ccc(C=O)cc2)ncn(CC2(O)CCN(C(=O)[C@@H]3CCC(F)(F)C[C@H]3c3ccccc3)CC2)c1=O [Example 44] | 38.7 | 0.0736 | – |

Stronger by IC50 [1], values ahead:

| IC50 [1] [nM] | SMILES | IC50 ([2]; Homo sapiens, Z-138, 96 h) [µM] | IC50 [2] [µM] |
| --- | --- | --- | --- |
| 26.6 | Cc1nccnc1C#C[C@@]1(F)CC[C@@H](C(=O)N2CCC(O)(Cn3cnc(Oc4ccc(F)cc4)c(N)c3=O)CC2)[C@H](c2ccccc2)C1 [Example 148, 5-amino-3-({1-[(1R,2R,4R)-4-fluoro-4-[2-(3-methylpyrazin-2yl)ethynyl]-2-phenylcyclohexanecarbonyl]-4-hydroxypiperidin-4-yl}methyl)-6-(4-fluorophenoxy)-3,4-dihydropyrimidin-4-one] | 0.0101 | – |
| 26.3 | C#C[C@]1(F)CC[C@@H](C(=O)N2CCC(O)(Cn3cnc(Oc4ccc(F)cc4)c(N)c3=O)CC2)[C@H](c2ccccc2)C1 [Example 122, 5-amino-3-({1-[(1R,2R,4S)-4-ethynyl-4-fluoro-2-phenylcyclohexanecarbonyl]-4-hydroxypiperidin-4-yl}methyl)-6-(4-fluorophenoxy)-3,4-dihydropyrimidin-4-one] | 0.0374 | – |
| 24.6 | CO[C@]1(C#Cc2cccc(N)n2)CC[C@@H](C(=O)N2CC[C@](O)(Cn3cnc(Oc4ccc(F)cc4)c(N)c3=O)C(F)(F)C2)[C@H](c2ccccc2)C1 [Example 164, 5-amino-3-{[(4S)-1-[(1R,2R,4R)-4-[2-(6-aminopyridin-2-yl)ethynyl]-4-methoxy-2-phenylcyclohexanecarbonyl]-3,3-difluoro-4-hydroxypiperidin-4-yl]methyl}-6-(4-fluorophenoxy)-3,4-dihydropyrimidin-4-one] | 0.0165 | – |
| 23.5 | COc1cc(O)cc(Oc2ncn(CC3(O)CCN(C(=O)[C@@H]4CCC(F)(F)C[C@H]4c4ccccc4)CC3)c(=O)c2N)c1 [Example 15, 5-amino-3-({1-[(1R,2R)-4,4-difluoro-2-phenylcyclohexane-1-carbonyl]-4-hydroxypiperidin-4-yl}methyl)-6-(3-hydroxy-5-methoxyphenoxy)pyrimidin-4(3H)-one] | 0.0195 | – |
| 20.3 | Nc1c(Oc2ccc(F)cc2)ncn(CC2(O)CCN(C(=O)[C@@H]3CC[C@](F)(C#Cc4cnccn4)C[C@H]3c3ccccc3)CC2)c1=O [Example 138, 5-amino-3-({1-[(1R,2R,4R)-4-fluoro-2-phenyl-4-[2-(pyrazin-2-yl)ethynyl]cyclohexanecarbonyl]-4-hydroxypiperidin-4-yl}methyl)-6-(4-fluorophenoxy)-3,4-dihydropyrimidin-4-one] | 0.00657 | – |
| 18.5 | CO[C@]1(C#Cc2cccnn2)CC[C@@H](C(=O)N2CCC(O)(Cn3cnc(Oc4ccc(F)cc4)c(N)c3=O)CC2)[C@H](c2ccccc2)C1 [Example 146, 5-amino-6-(4-fluorophenoxy)-3-[(4-hydroxy-{[(1R,2R,4R)-4-methoxy-2-phenyl-4-[2-(pyridazin-3-yl)ethynyl]cyclohexyl]carbonyl}piperidin-4-yl)methyl]pyrimidin-4-one] | – | 0.00597 |
| 15 | CCC(N)c1ccc(Oc2ncn(CC3(O)CCN(C(=O)[C@@H]4CCC(F)(F)C[C@H]4c4ccccc4)CC3)c(=O)c2N)cc1 (stereo partly drawn) [Example 56, 5-amino-6-[4-(1-aminopropyl)phenoxy]-3-({1-[(1R,2R)-4,4-difluoro-2-phenylcyclohexane-1-carbonyl]-4-hydroxypiperidin-4-yl}methyl)pyrimidin-4(3H)-one] | 0.539 | – |
| 14.6 | COc1cnnc(C#C[C@@]2(OC)CC[C@@H](C(=O)N3CC[C@](O)(Cn4cnc(Oc5ccc(F)cc5)c(N)c4=O)C(F)(F)C3)C(c3ccccc3)C2)c1 (stereo partly drawn) [Example 173, 5-amino-3-{[(4S)-3,3-difluoro-4-hydroxy-1-[(1R,4R)-4-methoxy-4-[2-(5-methoxypyridazin-3-yl)ethynyl]-2-phenylcyclohexanecarbonyl]piperidin-4-yl]methyl}-6-(4-fluorophenoxy)-3,4-dihydropyrimidin-4-one] | 0.00521 | – |
| 8.55 | Cn1ccnc1C#C[C@@]1(F)CC[C@@H](C(=O)N2CCC(O)(Cn3cnc(Oc4ccc(F)cc4)c(N)c3=O)CC2)[C@H](c2ccccc2)C1 [Example 149, 5-amino-3-[(1-{[(1R,2R,4R)-4-fluoro-4-[2-(1-methylimidazol-2-yl)ethynyl]-2-phenylcyclohexyl]carbonyl}-4-hydroxypiperidin-4-yl)methyl]-6-(4-fluorophenoxy)pyrimidin-4-one] | 0.259 | – |
| 7.4 | CC(N)c1ccc(Oc2ncn(CC3(O)CCN(C(=O)[C@@H]4CCC(F)(F)C[C@H]4c4ccccc4)CC3)c(=O)c2N)cc1 (single isomer, unassigned; diastereoisomer 1) [Example 54] | 0.273 | – |
| 3.08 | Nc1c(Oc2ccc(C3CCCCN3)cc2)ncn(CC2(O)CCN(C(=O)[C@@H]3CCC(F)(F)C[C@H]3c3ccccc3)CC2)c1=O (stereo partly drawn) [Example 121, 5-amino-3-({1-[(1R,2R)-4,4-difluoro-2-phenylcyclohexane-1-carbonyl]-4-hydroxypiperidin-4-yl}methyl)-6-[4-(piperidin-2-yl)phenoxy]pyrimidin-4(3H)-one] | 0.546 | – |
